The values below come from article PMC8294944 (Journal of agricultural and food chemistry, 2020).

Experiment [1] deals with T1, ERα (Ishikawa endometrial carcinoma cells) (Homo sapiens, UniProt P03372).
T1 sequence (P03372 1-595): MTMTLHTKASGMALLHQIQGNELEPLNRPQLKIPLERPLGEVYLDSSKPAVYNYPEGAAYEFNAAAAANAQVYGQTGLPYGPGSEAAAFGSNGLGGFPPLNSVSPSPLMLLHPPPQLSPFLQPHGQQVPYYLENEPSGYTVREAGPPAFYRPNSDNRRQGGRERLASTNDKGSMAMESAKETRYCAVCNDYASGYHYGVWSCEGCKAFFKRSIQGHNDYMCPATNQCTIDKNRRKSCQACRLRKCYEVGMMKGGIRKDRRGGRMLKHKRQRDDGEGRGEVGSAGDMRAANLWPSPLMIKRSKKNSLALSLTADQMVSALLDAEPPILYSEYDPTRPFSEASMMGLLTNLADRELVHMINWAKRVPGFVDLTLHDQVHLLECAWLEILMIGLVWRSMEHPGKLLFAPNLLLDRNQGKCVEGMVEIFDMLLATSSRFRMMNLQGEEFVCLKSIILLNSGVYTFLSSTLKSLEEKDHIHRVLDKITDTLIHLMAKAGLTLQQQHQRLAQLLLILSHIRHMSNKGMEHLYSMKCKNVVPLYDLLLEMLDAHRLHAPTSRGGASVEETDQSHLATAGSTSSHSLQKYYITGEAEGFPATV
Particulars: read-out: ERα EC50 (LigF); compared with 8-PA; cited from earlier work.

For experiment [2], the target named is T1, ERα (Ishikawa endometrial carcinoma cells). Nature of the experiment: Estrogen-responsive alkaline phosphatase assay in ERα positive Ishikawa cells. Particulars: for Emax: Ishikawa, read-out: ERα Maximum efficacy. It is filed as cell-based.
The target in experiment [3] is T2, purified full length human recombinant ERα (Homo sapiens, UniProt P03372).
T2 sequence (P03372 1-595): T1 sequence (P03372 1-595)
The experiment can be described thus: ERα competitive binding assay.

The target in experiment [4] is purified full length human recombinant ERβ (Homo sapiens, UniProt Q92731). Nature of the experiment: ERβ competitive binding assay.
The test system of another experiment is uterine tissue. Particulars: 8-PN in dietary concentrations; cited from earlier work.
[5] abbreviates: alkaline phosphatase, Ishikawa cells, mean ± SEM.
[6] abbreviates: read-out: ERα EC50 (compounds), alkaline phosphatase, Ishikawa cells, mean ± SEM.
Setting [7] is: relative to 17β-E2, [3H]-E2 tracer 20 nM.

Where two headings read alike, the source gives them in different places. Some results are limits rather than exact numbers.

purified full length human recombinant ERβ, sequence (Q92731 whole entry): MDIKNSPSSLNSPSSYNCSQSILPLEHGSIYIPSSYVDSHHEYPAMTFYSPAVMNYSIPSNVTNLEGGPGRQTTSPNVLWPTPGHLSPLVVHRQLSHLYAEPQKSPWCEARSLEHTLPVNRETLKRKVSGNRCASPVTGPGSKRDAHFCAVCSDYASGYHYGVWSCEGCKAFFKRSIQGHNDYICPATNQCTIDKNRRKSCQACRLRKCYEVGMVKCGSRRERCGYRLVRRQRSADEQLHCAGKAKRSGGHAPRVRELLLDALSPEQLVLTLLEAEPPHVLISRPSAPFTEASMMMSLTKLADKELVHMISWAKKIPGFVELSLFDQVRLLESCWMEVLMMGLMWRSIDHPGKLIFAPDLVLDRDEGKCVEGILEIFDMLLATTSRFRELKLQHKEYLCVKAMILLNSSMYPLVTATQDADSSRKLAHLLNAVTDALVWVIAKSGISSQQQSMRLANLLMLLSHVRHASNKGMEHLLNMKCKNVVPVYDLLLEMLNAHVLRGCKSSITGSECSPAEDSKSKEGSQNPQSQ

As usually defined, the EC50 is the concentration that produces a half-maximal response. With `O=C1C[C@@H](c2ccc(O)cc2)Oc2cc(O)ccc21` [LigF, liquiritigenin], the EC50 in experiment [1] is 3400 nM.
For the molecule Dehydrogenistein [DGN], the “ERα Maximum efficacy” value in experiment [2] (setting [5]) was found to be 84 ± 4.0. For the same molecule, the EC50 in experiment [2] (setting [6]) is 800 ± 100 nM. The “ERα % RBA (relative binding affinity = IC50 E2/IC50 (iso)flavonoid x100)” value in experiment [3] (setting [7]) is recorded as under 0.002%. Besides, in experiment [4] (setting [7]), the “ERβ % RBA (relative binding affinity = IC50 E2/IC50 (iso)flavonoid x100)” value worked out at 14%.
Turning to `CC(C)=CCc1c(O)cc(O)c2c(=O)c(-c3ccc(O)cc3)coc12` [8-PG, 8-Prenylgenistein], in experiment [2], the 50% effective concentration (EC50) was 500 ± 200 nM and the Emax came out at 49 ± 10%. For the same molecule, the “ERα % RBA (relative binding affinity = IC50 E2/IC50 (iso)flavonoid x100)” value in experiment [3] (setting [7]) is reported as under 0.002%. Further, the “ERβ % RBA (relative binding affinity = IC50 E2/IC50 (iso)flavonoid x100)” value in experiment [4] (setting [7]) is on record as 0.9%.
Consider `O=C1C[C@@H](c2ccc(O)cc2)Oc2cc(O)cc(O)c21` [NRG, naringenin], for which, in experiment [2], a half-maximal response (EC50) required 3700 ± 500 nM and the Emax was 69 ± 6%. Besides, the “ERα % RBA (relative binding affinity = IC50 E2/IC50 (iso)flavonoid x100)” value in experiment [3] was under 0.002%. In addition, in experiment [4], the “ERβ % RBA (relative binding affinity = IC50 E2/IC50 (iso)flavonoid x100)” value is 0.05%.
As for `CC(C)=CCc1c(O)cc(O)c2c1O[C@H](c1ccc(O)cc1)CC2=O` [8-PN, 8-Prenylnaringenin], the “Effect on uterine weight” value with uterine tissue is given as “increased uterine weight”.
Consider `CC(C)=CCc1c(O)cc(O)c2c(=O)c(O)c(-c3ccc(O)cc3)oc12` [DMI, Desmethylicaritin], for which, in experiment [2] (setting [5]), the “ERα Maximum efficacy” value is reported as 67 ± 12. In addition, the EC50 in experiment [2] (setting [6]) was 200 ± 20 nM.
